Values belong to the compound of their own block, whether it stands above or below them. Calls of active or inactive are those of the source.
Key:
[1] = molecular target: Peroxisome proliferator-activated receptor gamma/Nuclear receptor coactivator 3 (Homo sapiens, UniProt P37231); experiment: (§1) TR-FRET dose response biochemical High Throughput Screening assay for agonists of the steroid receptor coactivator 3 (SRC-3) recruitment by the peroxisome proliferator-activated receptor gamma (PPAR gamma): non-selective agonists. [Related pubchem assays: 1301 (Confirmation screen.), 1048 (Primary screen.)]; format: functional
Phosphomannomutase 2 = Phosphomannomutase 2 (Homo sapiens, UniProt O15305); experiment: Counter screen SAR assay for PMM2 inhibitors via a fluorescence intensity assay. [Related pubchem assays (depositor defined):AID1545, AID1574]
[2] = molecular target: Peroxisome proliferator-activated receptor gamma/Nuclear receptor coactivator 1 (Homo sapiens, UniProt P37231); experiment: as §1, with “1 (SRC-1)” for “3 (SRC-3)”, “assays (depositor defined):AID1300, AID1808, AID504735, AID631]” for “assays: 1301 (Confirmation screen.), 1048 (Primary screen.)]”; format: protein assay
[3] = molecular target: Mitogen-activated protein kinase 10 (Homo sapiens, UniProt P53779); experiment: Dose response biochemical screening assay for inhibitors of c-Jun N-Terminal Kinase 3 (JNK3). [Related pubchem assays: 746 ]
[4] = molecular target: T1, Mannose-6-phosphate isomerase (Homo sapiens, UniProt P34949); experiment: PMI enzyme inhibitors, confirmation, biochemical, fluorescence intensity (AID 1535)
T1 sequence (P34949 whole entry): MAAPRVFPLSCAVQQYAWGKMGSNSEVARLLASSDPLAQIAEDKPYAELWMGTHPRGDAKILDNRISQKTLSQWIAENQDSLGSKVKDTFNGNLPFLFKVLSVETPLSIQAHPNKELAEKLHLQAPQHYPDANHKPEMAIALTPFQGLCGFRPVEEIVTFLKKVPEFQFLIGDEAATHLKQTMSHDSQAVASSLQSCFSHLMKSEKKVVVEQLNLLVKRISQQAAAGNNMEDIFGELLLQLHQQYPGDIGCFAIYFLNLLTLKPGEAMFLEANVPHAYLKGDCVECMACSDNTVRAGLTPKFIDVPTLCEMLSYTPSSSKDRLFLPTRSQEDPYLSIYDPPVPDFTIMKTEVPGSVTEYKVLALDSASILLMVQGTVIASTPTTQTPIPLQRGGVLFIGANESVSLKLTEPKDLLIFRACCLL

[5] = molecular target: Peroxisome proliferator-activated receptor gamma/Nuclear receptor coactivator 2 (Homo sapiens, UniProt P37231); experiment: TR-FRET dose response biochemical High Throughput Screening assay for agonists of the steroid receptor coactivator 2 (SRC-2) recruitment by the peroxisome proliferator-activated receptor gamma (PPAR gamma): non-selective agonists. [Related pubchem assays: 1297, 1032 ]; format: functional
[6] = Jurkat T cell cytotoxicity, dose response, cytotoxicity control for P. falciparum gametocyte viability project, luminescence (AID 1117277); format: functional, cell-based;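 note: potency reflects loss of cellular ATP meaning fewer viable cells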
[7] = P. falciparum late gametocyte killing, dose response, luminescence (AID 1117278); format: functional, cell-based;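 note: gametocytes exposed to compound for 24 hours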
[8] = Artemis endonuclease inhibitor potency, dose response, biochemical, fluorescence intensity (AID 720701); format: functional;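 note: Artemis endonuclease enzyme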
[9] = molecular target: T2, Low molecular weight phosphotyrosine protein phosphatase (Homo sapiens, UniProt P24666); format: functional; details: read-out: IC50_Mean;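 note: Dose-response confirmation assay measuring inhibition of LMPTP enzyme activity by fluorescence intensity read-out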
T2 sequence (P24666 whole entry): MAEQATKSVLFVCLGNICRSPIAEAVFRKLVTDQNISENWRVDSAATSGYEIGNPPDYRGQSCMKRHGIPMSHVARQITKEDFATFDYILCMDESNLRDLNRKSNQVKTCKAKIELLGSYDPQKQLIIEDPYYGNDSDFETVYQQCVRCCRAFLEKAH

[10] = molecular target: T3, DNA repair and recombination protein RAD54-like (Homo sapiens, UniProt Q92698); experiment: inhibitors of human RAD54 branch migration, confirmation, biochemical, fluorescence, cherry-picked samples, dose series (AID 651657); format: functional
T3 sequence (Q92698 whole entry): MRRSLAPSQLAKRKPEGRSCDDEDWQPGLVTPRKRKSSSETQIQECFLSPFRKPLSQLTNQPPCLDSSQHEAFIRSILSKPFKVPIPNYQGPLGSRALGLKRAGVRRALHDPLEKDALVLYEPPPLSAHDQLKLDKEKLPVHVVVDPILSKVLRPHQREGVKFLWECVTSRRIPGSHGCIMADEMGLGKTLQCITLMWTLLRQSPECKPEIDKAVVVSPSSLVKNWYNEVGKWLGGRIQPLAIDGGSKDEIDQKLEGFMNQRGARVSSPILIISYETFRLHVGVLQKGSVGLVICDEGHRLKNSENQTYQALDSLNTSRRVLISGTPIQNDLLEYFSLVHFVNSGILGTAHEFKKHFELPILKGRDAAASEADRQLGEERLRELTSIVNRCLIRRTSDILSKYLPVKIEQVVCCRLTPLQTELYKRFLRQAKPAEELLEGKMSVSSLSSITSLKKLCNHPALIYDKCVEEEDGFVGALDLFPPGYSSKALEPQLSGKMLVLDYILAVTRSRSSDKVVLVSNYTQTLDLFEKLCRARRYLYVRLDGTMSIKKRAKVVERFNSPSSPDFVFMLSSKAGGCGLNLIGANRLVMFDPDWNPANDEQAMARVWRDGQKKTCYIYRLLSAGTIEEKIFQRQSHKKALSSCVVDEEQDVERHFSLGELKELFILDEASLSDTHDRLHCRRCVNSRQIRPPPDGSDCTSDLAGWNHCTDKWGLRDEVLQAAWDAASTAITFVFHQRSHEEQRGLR

[11] = molecular target: DNA (cytosine-5)-methyltransferase 1 (Homo sapiens, UniProt P26358); experiment: DNMT1 methyltransferase inhibitors, confirmation, biochemical, fluorescent molecular beacon (AID 602386); format: functional
[12] = Luminescence Cell-Based Dose Confirmation HTS to Identify Inhibitors of Polyadenylation.; format: functional
[13] = DNA binding of candidate compounds, dose response, artefact control for RAD54 inhibitor project, biochemical, fluorescence polarization, cherry-pick (AID 651673); format: functional
[14] = molecular target: T4, DNA repair protein RAD52 homolog (Homo sapiens, UniProt P43351); format: functional, biochemical
T4 sequence (P43351 whole entry): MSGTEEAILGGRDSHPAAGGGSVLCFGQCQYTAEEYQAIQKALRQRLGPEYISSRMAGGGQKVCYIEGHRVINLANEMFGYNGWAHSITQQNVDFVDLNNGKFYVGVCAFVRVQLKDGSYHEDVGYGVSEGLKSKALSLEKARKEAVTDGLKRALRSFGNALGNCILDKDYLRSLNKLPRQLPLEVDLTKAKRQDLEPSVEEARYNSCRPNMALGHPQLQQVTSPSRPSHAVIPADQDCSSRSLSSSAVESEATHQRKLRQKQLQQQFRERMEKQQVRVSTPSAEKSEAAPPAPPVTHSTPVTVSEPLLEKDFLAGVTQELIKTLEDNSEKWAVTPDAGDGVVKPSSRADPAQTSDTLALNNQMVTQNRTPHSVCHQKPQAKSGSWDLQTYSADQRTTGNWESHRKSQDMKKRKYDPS

[15] = molecular target: Heat shock protein HSP 90-alpha (Homo sapiens, UniProt P07900); experiment: Luminescence-based dose response biochemical high throughput screening assay for inhibitors of the Heat Shock Protein 90 (HSP90). [Related pubchem assays: 1831 (Summary AID.), 1846 (Confirmation screen.), 1789 (Primary screen.)]
BJ [16] = experiment: cytotoxicity toward BJ-TERT-LT-ST fibroblasts, dose response, cell-based, RAS-independent, luminescence (AID 1935); format: functional; details: Homo sapiens;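 note: BJ fibroblasts immortalized with TERT plus LT and ST oncogenes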
BJ [17] = experiment: cells; format: functional, cell-based; details: Homo sapiens
BJ [18] = experiment: cytotoxicity toward Ras-transformed BJeLR fibroblasts, dose response, cell-based, alamar blue fluorescence, cherrypicked samples (AID 2631); format: functional; details: Homo sapiens;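 note: confirmatory dose-response assay in RAS-dependent BJ fibroblasts engineered with TERT, LT and ST, with cytotoxicity read by fluorescence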
[19] = cytotoxicity toward DRD oncogenic fibroblasts, dose response, cell-based, non-viral oncogenic, luminescence (AID 1934); format: functional; details: Homo sapiens
BJ [20] = experiment: cytotoxicity toward BJ-TERT fibroblasts, dose response, cell-based, RAS-independent, luminescence (AID 1933); format: functional; details: Homo sapiens
[21] = Luminescent dose response cell-based high throughput screening assay for inhibitors of the Janus kinase 2 mutant JAK2V617F. [Related pubchem assays: 1446 (Primary screen.), 1521 (Confirmation assay.), 1486 (Counter screen.)]; format: functional
[22] = molecular target: Peroxisome proliferator-activated receptor gamma/Nuclear receptor corepressor 2 (Homo sapiens, UniProt P37231+Q9Y618); experiment: Counterscreen for NR2E3 inverse agonists: TR-FRET-based biochemical high throughput dose response assay to identify inverse agonists of the interaction between peroxisome proliferator-activated receptor gamma (PPARg) and nuclear receptor co-repressor 2 (NCOR2).; format: functional
[23] = molecular target: Photoreceptor-specific nuclear receptor (Homo sapiens, UniProt Q9Y5X4); experiment: NR2E3 inverse agonists, dose response, biochemical, TR-FRET (AID 463256); format: functional
Chain of Photoreceptor-specific nuclear receptor (Q9Y5X4 whole entry): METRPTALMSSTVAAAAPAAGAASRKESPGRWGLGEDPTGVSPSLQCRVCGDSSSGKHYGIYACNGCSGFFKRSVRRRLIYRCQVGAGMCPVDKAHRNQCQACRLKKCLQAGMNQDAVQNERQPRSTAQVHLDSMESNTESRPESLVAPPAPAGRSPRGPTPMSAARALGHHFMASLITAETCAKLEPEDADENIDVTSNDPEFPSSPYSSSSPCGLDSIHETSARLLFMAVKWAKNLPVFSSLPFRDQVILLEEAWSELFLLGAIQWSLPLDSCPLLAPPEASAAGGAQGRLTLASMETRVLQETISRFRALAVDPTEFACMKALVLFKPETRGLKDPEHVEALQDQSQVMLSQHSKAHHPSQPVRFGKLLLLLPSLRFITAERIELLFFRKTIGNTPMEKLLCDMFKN

Chain of Mitogen-activated protein kinase 10 (P53779 whole entry): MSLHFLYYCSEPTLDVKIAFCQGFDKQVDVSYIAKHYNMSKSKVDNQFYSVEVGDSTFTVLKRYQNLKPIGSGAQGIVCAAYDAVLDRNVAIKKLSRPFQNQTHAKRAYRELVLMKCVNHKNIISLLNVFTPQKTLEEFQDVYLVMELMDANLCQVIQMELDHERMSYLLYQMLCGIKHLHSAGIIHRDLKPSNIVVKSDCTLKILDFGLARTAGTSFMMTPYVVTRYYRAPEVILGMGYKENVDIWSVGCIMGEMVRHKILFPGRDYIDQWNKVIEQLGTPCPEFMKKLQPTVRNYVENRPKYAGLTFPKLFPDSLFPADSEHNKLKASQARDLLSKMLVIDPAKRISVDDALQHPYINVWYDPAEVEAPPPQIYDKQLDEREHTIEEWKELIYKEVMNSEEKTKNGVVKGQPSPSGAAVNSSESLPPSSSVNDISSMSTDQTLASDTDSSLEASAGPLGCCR
Chain of Peroxisome proliferator-activated receptor gamma/Nuclear receptor coactivator 3 (P37231 whole entry): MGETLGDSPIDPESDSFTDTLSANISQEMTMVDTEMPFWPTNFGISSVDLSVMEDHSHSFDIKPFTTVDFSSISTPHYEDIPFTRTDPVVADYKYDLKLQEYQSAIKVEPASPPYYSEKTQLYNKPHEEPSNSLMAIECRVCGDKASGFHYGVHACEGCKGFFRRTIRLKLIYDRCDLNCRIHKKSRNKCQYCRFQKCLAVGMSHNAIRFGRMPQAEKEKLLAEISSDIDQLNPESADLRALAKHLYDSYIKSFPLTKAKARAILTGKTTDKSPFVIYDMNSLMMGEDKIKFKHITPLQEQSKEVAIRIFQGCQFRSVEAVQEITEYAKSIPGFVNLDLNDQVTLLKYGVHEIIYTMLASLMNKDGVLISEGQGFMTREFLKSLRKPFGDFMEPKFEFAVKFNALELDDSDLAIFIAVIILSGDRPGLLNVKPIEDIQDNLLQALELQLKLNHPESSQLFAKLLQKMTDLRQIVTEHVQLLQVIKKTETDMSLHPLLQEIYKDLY
Chain of Peroxisome proliferator-activated receptor gamma/Nuclear receptor coactivator 3 (Q9Y6Q9 whole entry, further chain): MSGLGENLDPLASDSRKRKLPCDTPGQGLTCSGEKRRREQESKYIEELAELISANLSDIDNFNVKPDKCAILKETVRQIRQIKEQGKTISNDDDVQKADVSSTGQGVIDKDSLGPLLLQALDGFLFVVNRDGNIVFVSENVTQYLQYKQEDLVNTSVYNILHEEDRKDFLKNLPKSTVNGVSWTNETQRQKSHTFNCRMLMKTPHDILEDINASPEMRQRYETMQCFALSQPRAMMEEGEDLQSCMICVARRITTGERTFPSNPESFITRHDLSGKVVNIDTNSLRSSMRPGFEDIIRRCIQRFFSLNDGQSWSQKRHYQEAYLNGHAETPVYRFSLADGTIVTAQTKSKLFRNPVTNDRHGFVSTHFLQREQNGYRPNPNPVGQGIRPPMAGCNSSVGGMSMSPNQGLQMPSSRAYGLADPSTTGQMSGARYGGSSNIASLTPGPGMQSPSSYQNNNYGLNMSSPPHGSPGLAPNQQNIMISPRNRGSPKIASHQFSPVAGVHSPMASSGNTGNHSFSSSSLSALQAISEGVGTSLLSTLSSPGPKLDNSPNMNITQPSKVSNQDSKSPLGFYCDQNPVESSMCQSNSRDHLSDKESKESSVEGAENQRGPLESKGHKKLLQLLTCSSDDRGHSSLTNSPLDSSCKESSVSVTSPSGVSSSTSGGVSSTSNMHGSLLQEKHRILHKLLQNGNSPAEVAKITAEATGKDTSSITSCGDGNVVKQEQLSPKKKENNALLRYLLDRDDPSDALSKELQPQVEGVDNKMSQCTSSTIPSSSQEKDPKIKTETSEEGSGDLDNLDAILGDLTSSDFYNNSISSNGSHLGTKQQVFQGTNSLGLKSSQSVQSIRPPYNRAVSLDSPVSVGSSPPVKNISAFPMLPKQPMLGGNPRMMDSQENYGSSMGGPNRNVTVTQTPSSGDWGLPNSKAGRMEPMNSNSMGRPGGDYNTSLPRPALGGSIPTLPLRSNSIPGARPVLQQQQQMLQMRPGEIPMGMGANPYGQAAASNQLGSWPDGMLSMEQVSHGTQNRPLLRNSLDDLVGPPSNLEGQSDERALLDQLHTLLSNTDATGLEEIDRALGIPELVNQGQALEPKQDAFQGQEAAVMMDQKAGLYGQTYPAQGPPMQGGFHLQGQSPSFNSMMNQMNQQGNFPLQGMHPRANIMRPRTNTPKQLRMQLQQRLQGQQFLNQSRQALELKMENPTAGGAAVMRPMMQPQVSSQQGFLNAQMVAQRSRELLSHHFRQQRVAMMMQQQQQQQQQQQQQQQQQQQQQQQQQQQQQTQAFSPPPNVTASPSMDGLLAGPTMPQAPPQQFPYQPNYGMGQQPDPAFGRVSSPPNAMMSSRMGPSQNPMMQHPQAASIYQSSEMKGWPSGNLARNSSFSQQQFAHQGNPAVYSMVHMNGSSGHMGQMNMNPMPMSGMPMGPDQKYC
Chain of Peroxisome proliferator-activated receptor gamma/Nuclear receptor coactivator 2 (P37231 whole entry): as the sequence (P37231 whole entry) above
Chain of Peroxisome proliferator-activated receptor gamma/Nuclear receptor coactivator 2 (Q15596 whole entry, further chain): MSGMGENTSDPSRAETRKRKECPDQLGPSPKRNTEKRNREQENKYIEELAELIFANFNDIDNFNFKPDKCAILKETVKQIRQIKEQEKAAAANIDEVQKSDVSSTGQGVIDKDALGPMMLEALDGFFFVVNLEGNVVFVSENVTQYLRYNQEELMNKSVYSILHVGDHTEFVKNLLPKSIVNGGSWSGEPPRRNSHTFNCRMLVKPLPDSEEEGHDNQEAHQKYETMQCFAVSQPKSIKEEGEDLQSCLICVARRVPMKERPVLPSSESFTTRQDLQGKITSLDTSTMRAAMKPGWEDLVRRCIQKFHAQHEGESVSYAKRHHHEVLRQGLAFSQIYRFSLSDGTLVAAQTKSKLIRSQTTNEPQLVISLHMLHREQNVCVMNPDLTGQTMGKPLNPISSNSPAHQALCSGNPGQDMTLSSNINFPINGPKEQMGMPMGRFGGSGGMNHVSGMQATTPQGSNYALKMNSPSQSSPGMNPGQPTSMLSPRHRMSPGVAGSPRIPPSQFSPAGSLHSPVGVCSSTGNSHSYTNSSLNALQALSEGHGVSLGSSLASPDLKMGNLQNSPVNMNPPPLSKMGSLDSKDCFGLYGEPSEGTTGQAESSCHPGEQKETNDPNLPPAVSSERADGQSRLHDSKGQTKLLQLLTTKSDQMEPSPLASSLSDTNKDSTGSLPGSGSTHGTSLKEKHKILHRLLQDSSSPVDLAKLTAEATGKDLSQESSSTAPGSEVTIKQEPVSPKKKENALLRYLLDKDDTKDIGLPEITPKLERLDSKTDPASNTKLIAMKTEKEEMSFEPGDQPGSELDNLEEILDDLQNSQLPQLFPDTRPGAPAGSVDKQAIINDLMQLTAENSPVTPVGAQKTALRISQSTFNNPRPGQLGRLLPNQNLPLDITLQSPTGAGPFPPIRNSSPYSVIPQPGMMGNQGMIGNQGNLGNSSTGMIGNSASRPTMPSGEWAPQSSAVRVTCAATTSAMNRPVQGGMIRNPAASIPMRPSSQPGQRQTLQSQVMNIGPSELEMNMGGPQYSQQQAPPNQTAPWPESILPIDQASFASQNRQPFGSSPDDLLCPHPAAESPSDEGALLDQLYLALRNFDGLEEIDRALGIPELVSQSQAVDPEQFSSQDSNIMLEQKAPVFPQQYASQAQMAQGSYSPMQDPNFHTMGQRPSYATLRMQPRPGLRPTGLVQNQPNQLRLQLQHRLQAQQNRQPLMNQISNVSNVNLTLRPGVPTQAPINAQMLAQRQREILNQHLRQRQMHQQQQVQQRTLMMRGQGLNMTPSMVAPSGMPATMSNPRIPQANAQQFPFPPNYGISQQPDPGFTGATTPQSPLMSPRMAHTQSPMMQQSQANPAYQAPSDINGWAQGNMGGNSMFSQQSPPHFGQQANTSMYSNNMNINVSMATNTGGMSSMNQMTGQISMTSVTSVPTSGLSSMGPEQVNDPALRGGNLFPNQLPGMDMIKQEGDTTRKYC
Chain of Phosphomannomutase 2 (O15305 whole entry): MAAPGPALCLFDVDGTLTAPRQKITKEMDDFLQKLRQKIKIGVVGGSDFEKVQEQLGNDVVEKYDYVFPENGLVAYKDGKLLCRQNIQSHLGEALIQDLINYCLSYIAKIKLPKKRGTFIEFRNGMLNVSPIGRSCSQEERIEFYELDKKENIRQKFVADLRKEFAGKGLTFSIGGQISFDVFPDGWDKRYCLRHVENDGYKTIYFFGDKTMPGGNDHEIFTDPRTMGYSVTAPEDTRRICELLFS

Structure (SMILES): O=C(O)c1ccc(-c2ccccc2)nc1O
- IC50 [6]: > 83.2 µM (inactive)
- IC50 [7]: > 109 µM (inactive)

Structure (SMILES): CN(C)CCc1cc2c(c3c1ccc1ccccc13)OCO2
- AC50 [10]: 4.76 µM (active)
- IC50 [11]: > 99 µM (inactive)
- EC50 [12]: > 120 µM (not active)
- AC50 [13]: 39.9 µM (active)
- AC50 [14]: 1.29 µM (active)

Structure (SMILES): CCOc1ccc(Nc2nc(N)nc(CCl)n2)cc1
- EC50 (BJ [16]): 10.8 µM (inconclusive)
- EC50 (BJ [17]): 1.8 µM (active)
- EC50 (BJ [18]): 5.73 µM (active)
- EC50 [19]: 0.694 µM (active)
- EC50 (BJ [20]): 0.839 µM (inconclusive)
- IC50 [21]: 0.597 µM (active)

Structure (SMILES): Cc1cc(C)c2c(C)c(C(=O)NCc3ccc(S(N)(=O)=O)cc3)oc2c1
- IC50 [22]: 3.99 µM (active)
- IC50 [23]: 4.06 µM (active)

Results, then the compound that gave them:

- EC50 [1]: > 79.4 µM (not active)
- IC50 (Phosphomannomutase 2): > 100 µM (inactive)
- EC50 [2]: 7.33 µM (active)
- IC50 [3]: > 93.1 µM (not active)
- IC50 [4]: > 50 µM (inactive)
- EC50 [5]: 3.25 µM (active)
Structure (SMILES): Sc1nnc(-c2cccc(Br)c2)o1

- IC50 [8]: > 20 µM (inactive)
- IC50 [9]: 44.6 µM (inactive)
Structure (SMILES): O=C(Cc1cn2ccsc2n1)Nc1nc2c(s1)CN(Cc1ccccc1)CC2

- IC50 [15]: > 60 µM (not active)
Structure (SMILES): COC(=O)c1ccc(NC(=O)c2ccc(C)cc2)o1

From ChEMBL document CHEMBL1201862, “PubChem BioAssay data set” (2004)
